# Activity calls are given as the source filed them. The calls are words filed in the database; no cut-off is given here.
# Assays:
# Rattus norvegicus [1] = assay: Effect on heart rate in normal anesthetized rat at 0.1 to 10 ug/kg/min, iv; assay type: ADME, organism-based; settings: in vivo
# Canis familiaris [2] = assay: Suppression of renal vascular resistance in paced dog model of acute heart failure at 0.01 to 100 ug/kg/min dosed as dose escalation regime with duration of 30 mins for each dose; assay type: functional, organism-based; settings: Canis lupus familiaris
# Rattus norvegicus [3] = assay: Effect on vascular and cardiac function in normal anesthetized rat assessed as reduction in mean arterial pressure at 0.1 to 10 ug/kg/min, iv; assay type: functional, organism-based
# Rattus norvegicus [4] = assay: Effect on vascular and cardiac function in normal anesthetized rat assessed as preservation of stroke volume at 0.1 to 10 ug/kg/min, iv; assay type: functional, organism-based
# Rattus norvegicus [5] = assay: Effect on vascular and cardiac function in normal anesthetized rat assessed as preservation of pre-recruitable stroke work at 0.1 to 10 ug/kg/min, iv; assay type: functional, organism-based
# Canis familiaris [6] = assay: Increase in renal blood flow in paced dog model of acute heart failure at 0.01 to 100 ug/kg/min dosed as dose escalation regime with duration of 30 mins for each dose; assay type: functional, organism-based; settings: Canis lupus familiaris
# Canis familiaris [7] = assay: Preservation of cardiac output in paced dog model of acute heart failure at 0.01 to 100 ug/kg/min dosed as dose escalation regime with duration of 30 mins for each dose; assay type: functional, organism-based; settings: Canis lupus familiaris
# Canis familiaris [8] = assay: Suppression of right arterial pressure in paced dog model of acute heart failure at 0.01 to 100 ug/kg/min dosed as dose escalation regime with duration of 30 mins for each dose; assay type: functional, organism-based; settings: Canis lupus familiaris
# Canis familiaris [9] = assay: Increase in urine sodium excretion in paced dog model of acute heart failure at 0.01 to 100 ug/kg/min dosed as dose escalation regime with duration of 30 mins for each dose; assay type: functional, organism-based; settings: Canis lupus familiaris
# Canis familiaris [10] = assay: Suppression of pulmonary capillary wedge pressure in paced dog model of acute heart failure at 0.01 to 100 ug/kg/min dosed as dose escalation regime with duration of 30 mins for each dose; assay type: functional, organism-based; settings: Canis lupus familiaris
# Canis familiaris [11] = assay: Effect on renal function parameters in paced dog model of acute heart failure assessed as maintenance of glomerular filtration rate at 0.01 to 100 ug/kg/min dosed as dose escalation regime with duration of 30 mins for each dose; assay type: functional, organism-based; settings: Canis lupus familiaris
# Canis familiaris [12] = assay: Suppression of mean arterial pressure in paced dog model of acute heart failure at 0.01 to 100 ug/kg/min dosed as dose escalation regime with duration of 30 mins for each dose; assay type: functional, organism-based; settings: Canis lupus familiaris
# Rattus norvegicus [13] = assay: Effect on vascular and cardiac function in normal anesthetized rat assessed as increase in slope of end systolic pressure volume relationship at 0.1 to 10 ug/kg/min, iv; assay type: functional, organism-based
# Canis familiaris [14] = assay: Effect on renal function parameters in paced dog model of acute heart failure assessed as maintenance of urine potassium at 0.01 to 100 ug/kg/min dosed as dose escalation regime with duration of 30 mins for each dose; assay type: functional, organism-based; settings: Canis lupus familiaris
# Canis familiaris [15] = assay: Suppression of systemic vascular resistance in paced dog model of acute heart failure at 0.01 to 100 ug/kg/min dosed as dose escalation regime with duration of 30 mins for each dose; assay type: functional, organism-based; settings: Canis lupus familiaris
# Rattus norvegicus [16] = assay: Effect on vascular and cardiac function in normal anesthetized rat assessed as reduction in vaso-constriction at 0.1 to 10 ug/kg/min, iv; assay type: functional, organism-based
# Canis familiaris [17] = assay: Increase in urine output in paced dog model of acute heart failure at 0.01 to 100 ug/kg/min dosed as dose escalation regime with duration of 30 mins for each dose; assay type: functional, organism-based; settings: Canis lupus familiaris
smiles,measurement,setting,value
CC[C@H](C)[C@H](NC(=O)[C@H](Cc1ccc(O)cc1)NC(=O)[C@@H](NC(=O)[C@H](CCCNC(=N)N)NC(=O)CNC)C(C)C)C(=O)N[C@@H](Cc1cnc[nH]1)C(=O)N1CCC[C@H]1C(=O)N[C@H](C)C(=O)O [TRV-120027],Activity,Rattus norvegicus [1],Non-Toxic
same,Activity,Canis familiaris [2],Dose-dependent effect
same,Activity,Rattus norvegicus [3],Dose-dependent effect
same,Activity,Rattus norvegicus [4],Active
same,Activity,Rattus norvegicus [5],Active
same,Activity,Canis familiaris [6],Dose-dependent effect
same,Activity,Canis familiaris [7],Dose-dependent effect
same,Activity,Canis familiaris [8],Dose-dependent effect
same,Activity,Canis familiaris [9],Dose-dependent effect
same,Activity,Canis familiaris [10],Dose-dependent effect
same,Activity,Canis familiaris [11],Dose-dependent effect
same,Activity,Canis familiaris [12],Dose-dependent effect
same,Activity,Rattus norvegicus [13],Active
same,Activity,Canis familiaris [14],Dose-dependent effect
same,Activity,Canis familiaris [15],Dose-dependent effect
same,Activity,Rattus norvegicus [16],Active
same,Activity,Canis familiaris [17],Dose-dependent effect

# — ChEMBL document CHEMBL4476880, “beta-arrestin effectors and compositions and methods of use thereof” (2013)
